# Assay results: ChEMBL document CHEMBL3739357, “Replacement of cardiotoxic aminopiperidine linker with piperazine moiety reduces cardiotoxicity? Mycobacterium tuberculosis novel bacterial topoisomerase inhibitors” (Bioorg Med Chem, 2016)
# Target: DNA gyrase subunit A/DNA gyrase subunit B (Mycobacterium tuberculosis (strain ATCC 25618 / H37Rv), UniProt P9WG45+P9WG47)
# Test: Inhibition of Mycobacterium tuberculosis DNA gyrase assessed as inhibition of supercoiling activity using relaxed pBR322 plasmid as substrate after 30 mins
# Details: not given
# Chain of DNA gyrase subunit A/DNA gyrase subunit B (P9WG45 whole entry): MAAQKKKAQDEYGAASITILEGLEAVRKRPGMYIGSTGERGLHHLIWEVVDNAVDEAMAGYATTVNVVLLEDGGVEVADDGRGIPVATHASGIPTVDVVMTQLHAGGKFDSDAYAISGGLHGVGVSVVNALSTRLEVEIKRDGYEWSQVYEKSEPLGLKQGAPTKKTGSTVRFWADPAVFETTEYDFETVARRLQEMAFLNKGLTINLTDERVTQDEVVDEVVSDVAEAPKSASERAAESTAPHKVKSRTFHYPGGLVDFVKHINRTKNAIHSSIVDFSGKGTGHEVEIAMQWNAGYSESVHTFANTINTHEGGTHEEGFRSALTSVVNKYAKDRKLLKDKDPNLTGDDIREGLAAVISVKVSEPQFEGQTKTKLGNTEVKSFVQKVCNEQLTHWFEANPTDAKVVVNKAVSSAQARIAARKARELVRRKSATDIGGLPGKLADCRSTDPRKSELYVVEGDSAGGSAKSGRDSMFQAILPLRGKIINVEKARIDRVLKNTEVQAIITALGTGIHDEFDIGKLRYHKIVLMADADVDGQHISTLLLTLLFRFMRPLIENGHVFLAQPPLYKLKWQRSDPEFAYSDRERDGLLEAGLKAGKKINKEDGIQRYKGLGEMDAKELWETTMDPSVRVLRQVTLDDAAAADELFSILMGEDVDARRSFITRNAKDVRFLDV
# Chain of DNA gyrase subunit A/DNA gyrase subunit B (P9WG47 whole entry): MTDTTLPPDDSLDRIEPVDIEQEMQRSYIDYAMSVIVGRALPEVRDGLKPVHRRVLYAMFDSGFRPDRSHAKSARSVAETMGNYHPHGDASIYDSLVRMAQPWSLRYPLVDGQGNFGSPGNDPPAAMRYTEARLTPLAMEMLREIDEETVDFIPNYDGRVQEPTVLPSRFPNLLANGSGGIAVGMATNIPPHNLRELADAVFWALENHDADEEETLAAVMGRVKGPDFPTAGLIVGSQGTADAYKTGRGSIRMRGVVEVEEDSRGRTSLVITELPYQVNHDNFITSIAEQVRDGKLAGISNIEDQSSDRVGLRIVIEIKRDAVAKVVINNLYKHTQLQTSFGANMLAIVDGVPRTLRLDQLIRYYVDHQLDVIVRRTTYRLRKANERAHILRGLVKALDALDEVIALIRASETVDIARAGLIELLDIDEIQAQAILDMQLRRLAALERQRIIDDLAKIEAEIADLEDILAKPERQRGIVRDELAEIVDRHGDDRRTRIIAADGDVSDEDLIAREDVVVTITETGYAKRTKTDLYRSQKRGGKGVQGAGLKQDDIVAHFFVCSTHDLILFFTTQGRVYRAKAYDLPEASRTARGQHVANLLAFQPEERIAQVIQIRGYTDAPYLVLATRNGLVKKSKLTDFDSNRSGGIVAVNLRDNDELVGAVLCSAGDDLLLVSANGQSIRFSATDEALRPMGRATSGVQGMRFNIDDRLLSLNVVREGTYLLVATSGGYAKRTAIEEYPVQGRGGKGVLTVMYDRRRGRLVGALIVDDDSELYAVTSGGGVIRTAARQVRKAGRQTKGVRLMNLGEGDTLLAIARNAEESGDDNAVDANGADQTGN
row,Compound,IC50
1,COc1ccc(CNC(=S)N2CCN(CCn3c(=O)ccc4ncc(OC)cc43)CC2)cc1,15.5 µM
2,COc1cnc2ccc(=O)n(CCN3CCN(Cc4ccc([N+](=O)[O-])cc4)CC3)c2c1,0.98 µM
3,COc1cnc2ccc(=O)n(CCN3CCN(C(=S)Nc4ccc(C)cc4)CC3)c2c1,11.5 µM
4,COc1ccc(CNC(=O)N2CCN(CCn3c(=O)ccc4ncc(OC)cc43)CC2)cc1,14.6 µM
5,COc1cnc2ccc(=O)n(CCN3CCN(C(=O)Nc4ccc(F)cc4)CC3)c2c1,11.6 µM
6,COc1cnc2ccc(=O)n(CCN3CCN(C(=O)Nc4ccc(C(C)=O)cc4)CC3)c2c1,19.4 µM
7,COc1cnc2ccc(=O)n(CCN3CCN(Cc4ccc(Cl)cc4)CC3)c2c1,0.81 µM
8,COc1cnc2ccc(=O)n(CCN3CCN(C(=S)Nc4ccc(C(C)=O)cc4)CC3)c2c1,16.4 µM
9,COc1cnc2ccc(=O)n(CCN3CCN(C(=S)Nc4ccccc4)CC3)c2c1,15.4 µM
10,COc1cnc2ccc(=O)n(CCN3CCN(C(=O)Nc4ccc([N+](=O)[O-])cc4)CC3)c2c1,0.29 µM
11,COc1cnc2ccc(=O)n(CCN3CCN(C(=O)Nc4ccc(C)cc4)CC3)c2c1,2.68 µM
12,COc1cnc2ccc(=O)n(CCN3CCN(C(=S)NCc4ccc(Cl)cc4)CC3)c2c1,0.95 µM
13,COc1cnc2ccc(=O)n(CCN3CCN(C(=O)NCc4ccc(Cl)cc4)CC3)c2c1,0.92 µM
14,COc1cnc2ccc(=O)n(CCN3CCN(C(=O)Nc4ccccc4)CC3)c2c1,13.5 µM
15,COc1cnc2ccc(=O)n(CCN3CCN(C(=S)Nc4ccc([N+](=O)[O-])cc4)CC3)c2c1,18.5 µM
16,COc1cnc2ccc(=O)n(CCN3CCN(Cc4ccc(Br)cc4)CC3)c2c1,6.44 µM
17,COc1cnc2ccc(=O)n(CCN3CCN(C(=S)Nc4ccc(Cl)cc4)CC3)c2c1,12.8 µM
18,COc1cnc2ccc(=O)n(CCN3CCN(C(=S)Nc4ccc(F)cc4)CC3)c2c1,14.7 µM
19,COc1cnc2ccc(=O)n(CCN3CCN(C(=O)Nc4ccc(Br)cc4)CC3)c2c1,0.75 µM
20,COc1cnc2ccc(=O)n(CCN3CCN(C(=S)Nc4ccc(Br)cc4)CC3)c2c1,0.49 µM
21,COc1ccc(CN2CCN(CCn3c(=O)ccc4ncc(OC)cc43)CC2)cc1,1.34 µM
22,COc1cnc2ccc(=O)n(CCN3CCN(Cc4ccccc4)CC3)c2c1,0.94 µM
23,COc1cnc2ccc(=O)n(CCN3CCN(C(=O)Nc4ccc(Cl)cc4)CC3)c2c1,0.32 µM
24,COc1cnc2ccc(=O)n(CCN3CCN(Cc4ccc(F)cc4)CC3)c2c1,0.91 µM

# System: Mycobacterium tuberculosis
# Test: Antimycobacterial activity against Mycobacterium tuberculosis H37Rv after 7 days by alamar blue assay
# Type: functional
# Details: 168 h
row,Compound,MIC
1,COc1ccc(CNC(=S)N2CCN(CCn3c(=O)ccc4ncc(OC)cc43)CC2)cc1,26.7 µM
2,COc1cnc2ccc(=O)n(CCN3CCN(Cc4ccc([N+](=O)[O-])cc4)CC3)c2c1,7.38 µM
3,COc1cnc2ccc(=O)n(CCN3CCN(C(=S)Nc4ccc(C)cc4)CC3)c2c1,10.7 µM
4,COc1ccc(CNC(=O)N2CCN(CCn3c(=O)ccc4ncc(OC)cc43)CC2)cc1,27.7 µM
5,COc1cnc2ccc(=O)n(CCN3CCN(C(=O)Nc4ccc(F)cc4)CC3)c2c1,14.7 µM
6,COc1cnc2ccc(=O)n(CCN3CCN(C(=O)Nc4ccc(C(C)=O)cc4)CC3)c2c1,26.9 µM
7,COc1cnc2ccc(=O)n(CCN3CCN(Cc4ccc(Cl)cc4)CC3)c2c1,10.1 µM
8,COc1cnc2ccc(=O)n(CCN3CCN(C(=S)Nc4ccc(C(C)=O)cc4)CC3)c2c1,10.7 µM
9,COc1cnc2ccc(=O)n(CCN3CCN(C(=S)Nc4ccccc4)CC3)c2c1,29.5 µM
10,COc1cnc2ccc(=O)n(CCN3CCN(C(=O)Nc4ccc([N+](=O)[O-])cc4)CC3)c2c1,3.45 µM
11,COc1cnc2ccc(=O)n(CCN3CCN(C(=O)Nc4ccc(C)cc4)CC3)c2c1,7.41 µM
12,COc1cnc2ccc(=O)n(CCN3CCN(C(=S)NCc4ccc(Cl)cc4)CC3)c2c1,4.31 µM
13,COc1cnc2ccc(=O)n(CCN3CCN(C(=O)NCc4ccc(Cl)cc4)CC3)c2c1,6.6 µM
14,COc1cnc2ccc(=O)n(CCN3CCN(C(=O)Nc4ccccc4)CC3)c2c1,30.7 µM
15,COc1cnc2ccc(=O)n(CCN3CCN(C(=S)Nc4ccc([N+](=O)[O-])cc4)CC3)c2c1,26.7 µM
16,COc1cnc2ccc(=O)n(CCN3CCN(Cc4ccc(Br)cc4)CC3)c2c1,13.7 µM
17,COc1cnc2ccc(=O)n(CCN3CCN(C(=S)Nc4ccc(Cl)cc4)CC3)c2c1,13.6 µM
18,COc1cnc2ccc(=O)n(CCN3CCN(C(=S)Nc4ccc(F)cc4)CC3)c2c1,14.2 µM
19,COc1cnc2ccc(=O)n(CCN3CCN(C(=O)Nc4ccc(Br)cc4)CC3)c2c1,3.21 µM
20,COc1cnc2ccc(=O)n(CCN3CCN(C(=S)Nc4ccc(Br)cc4)CC3)c2c1,3.8 µM
21,COc1ccc(CN2CCN(CCn3c(=O)ccc4ncc(OC)cc43)CC2)cc1,3.82 µM
22,COc1cnc2ccc(=O)n(CCN3CCN(Cc4ccccc4)CC3)c2c1,4.12 µM
23,COc1cnc2ccc(=O)n(CCN3CCN(C(=O)Nc4ccc(Cl)cc4)CC3)c2c1,7.06 µM
24,COc1cnc2ccc(=O)n(CCN3CCN(Cc4ccc(F)cc4)CC3)c2c1,15 µM
25,CC[C@@H](CO)NCCN[C@@H](CC)CO [ETHAMBUTOL],9.84 µM
26,COc1c(N2C[C@@H]3CCCN[C@@H]3C2)c(F)cc2c(=O)c(C(=O)O)cn(C3CC3)c12 [MOXIFLOXACIN],2.4 µM
27,CO[C@@H]1[C@@H](OC(N)=O)[C@@H](O)[C@H](Oc2ccc3c(O)c(NC(=O)c4ccc(O)c(CC=C(C)C)c4)c(=O)oc3c2C)OC1(C)C [NOVOBIOCIN],> 200 µM

# Species: Danio rerio
# Test: Toxicity in zebrafish embryo assessed as heart rate at 30 uM after 4 hrs
# Type: organism-based
# Details: in vivo
row,Compound,Activity
1,COc1cnc2ccc(=O)n(CCN3CCN(C(=O)Nc4ccc([N+](=O)[O-])cc4)CC3)c2c1,Toxic
2,COc1cnc2ccc(=O)n(CCN3CCN(C(=O)Nc4ccc(Cl)cc4)CC3)c2c1,Toxic

# Species: Danio rerio
# Test: Toxicity in zebrafish embryo assessed as artrio-ventricular ratio at 30 uM after 4 hrs
# Type: organism-based
# Details: in vivo
row,Compound,Activity
1,COc1cnc2ccc(=O)n(CCN3CCN(C(=O)Nc4ccc([N+](=O)[O-])cc4)CC3)c2c1,Toxic
2,COc1cnc2ccc(=O)n(CCN3CCN(C(=O)Nc4ccc(Cl)cc4)CC3)c2c1,Toxic

# System: not listed separately
# Test: Cytotoxicity against mouse RAW264.7 cells at 50 uM after 48 hrs by MTT assay
# Type: cell-based
# Details: read-out: INH
row,Compound,"cytotoxicity at 48 h, 50 µM"
1,COc1ccc(CNC(=S)N2CCN(CCn3c(=O)ccc4ncc(OC)cc43)CC2)cc1,17.1%
2,COc1cnc2ccc(=O)n(CCN3CCN(Cc4ccc([N+](=O)[O-])cc4)CC3)c2c1,37.6%
3,COc1cnc2ccc(=O)n(CCN3CCN(C(=S)Nc4ccc(C)cc4)CC3)c2c1,26.8%
4,COc1ccc(CNC(=O)N2CCN(CCn3c(=O)ccc4ncc(OC)cc43)CC2)cc1,37.6%
5,COc1cnc2ccc(=O)n(CCN3CCN(C(=O)Nc4ccc(F)cc4)CC3)c2c1,25.2%
6,COc1cnc2ccc(=O)n(CCN3CCN(C(=O)Nc4ccc(C(C)=O)cc4)CC3)c2c1,18.6%
7,COc1cnc2ccc(=O)n(CCN3CCN(Cc4ccc(Cl)cc4)CC3)c2c1,26.5%
8,COc1cnc2ccc(=O)n(CCN3CCN(C(=S)Nc4ccc(C(C)=O)cc4)CC3)c2c1,3.16%
9,COc1cnc2ccc(=O)n(CCN3CCN(C(=S)Nc4ccccc4)CC3)c2c1,32.6%
10,COc1cnc2ccc(=O)n(CCN3CCN(C(=O)Nc4ccc([N+](=O)[O-])cc4)CC3)c2c1,5.08%
11,COc1cnc2ccc(=O)n(CCN3CCN(C(=O)Nc4ccc(C)cc4)CC3)c2c1,32.3%
12,COc1cnc2ccc(=O)n(CCN3CCN(C(=S)NCc4ccc(Cl)cc4)CC3)c2c1,24.9%
13,COc1cnc2ccc(=O)n(CCN3CCN(C(=O)NCc4ccc(Cl)cc4)CC3)c2c1,24.6%
14,COc1cnc2ccc(=O)n(CCN3CCN(C(=O)Nc4ccccc4)CC3)c2c1,9.54%
15,COc1cnc2ccc(=O)n(CCN3CCN(C(=S)Nc4ccc([N+](=O)[O-])cc4)CC3)c2c1,17.3%
16,COc1cnc2ccc(=O)n(CCN3CCN(Cc4ccc(Br)cc4)CC3)c2c1,2.15%
17,COc1cnc2ccc(=O)n(CCN3CCN(C(=S)Nc4ccc(Cl)cc4)CC3)c2c1,6.59%
18,COc1cnc2ccc(=O)n(CCN3CCN(C(=S)Nc4ccc(F)cc4)CC3)c2c1,21.6%
19,COc1cnc2ccc(=O)n(CCN3CCN(C(=O)Nc4ccc(Br)cc4)CC3)c2c1,24.4%
20,COc1cnc2ccc(=O)n(CCN3CCN(C(=S)Nc4ccc(Br)cc4)CC3)c2c1,1.06%
21,COc1ccc(CN2CCN(CCn3c(=O)ccc4ncc(OC)cc43)CC2)cc1,15.9%
22,COc1cnc2ccc(=O)n(CCN3CCN(Cc4ccccc4)CC3)c2c1,15%
23,COc1cnc2ccc(=O)n(CCN3CCN(C(=O)Nc4ccc(Cl)cc4)CC3)c2c1,27%
24,COc1cnc2ccc(=O)n(CCN3CCN(Cc4ccc(F)cc4)CC3)c2c1,26.4%
25,CO[C@@H]1[C@@H](OC(N)=O)[C@@H](O)[C@H](Oc2ccc3c(O)c(NC(=O)c4ccc(O)c(CC=C(C)C)c4)c(=O)oc3c2C)OC1(C)C [NOVOBIOCIN],19.3%

# Species: Danio rerio
# Test: Toxicity in zebrafish embryo assessed as heart rate at 10 uM after 4 hrs
# Type: organism-based
# Details: in vivo
row,Compound,Activity
1,COc1cnc2ccc(=O)n(CCN3CCN(C(=O)Nc4ccc([N+](=O)[O-])cc4)CC3)c2c1,Toxic

# Species: Danio rerio
# Test: Toxicity in zebrafish embryo assessed as artrio-ventricular ratio at 10 uM after 4 hrs
# Type: organism-based
# Details: in vivo
row,Compound,Activity
1,COc1cnc2ccc(=O)n(CCN3CCN(C(=O)Nc4ccc([N+](=O)[O-])cc4)CC3)c2c1,Toxic
